Reference: patent publication US10335398B2 (MAXINASE LIFE SCIENCES LIMITED, priority 2015, dated 2019)

Experiments:
[1] = Pharmacokinetic study on Bioadhesive Composition in Beagle dogs; conditions: for half-life: t1/2, Beagle dogs;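 for all read-outs here: eight Beagle dogs (4 male, 4 female), five-period crossover with 3-day washouts, plasma levels quantified by validated LC-MS/MS, oral dosing after roughly 16 h fast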
Description: (§1) Eight Beagle dogs (4 male and 4 female) participated in the study. The study was preceded in five cross-over periods, separated by 3-day washout period. For oral administration, dogs were fasted about 16 hours prior to the dosing but had free access to water. […] Each oral dosing was administered with 20-30 mL of water. […] Blood samples were collected at pre-dose (0 min) and at 5, 10, 15, 30, 45 minutes; and at 1, 2, 3, 4, 6, 8, 12, 24 hours post-dose. After the plasma-separation process, the samples were analyzed by a validated LC-MS/MS method.

in vivo = conditions: both, beagle, dog, plasma, 1 mg
Description: as §1

[2] = Beagle dogs, analyte 7-OH Granisetron, IV Kytril® IV Infusion 1 mg
[3] = Beagle dogs, analyte 7-OH Granisetron, nasal GNS-B01 0.5 mg
[4] = Beagle dogs, analyte 7-OH Granisetron, nasal GNS-B01 1.0 mg
[5] = Beagle dogs, analyte 7-OH Granisetron, nasal GNS-B01 2 mg
[6] = Beagle dogs, analyte 7-OH Granisetron, oral Kytril® tablet 1 mg

CN1[C@@H]2CCC[C@H]1C[C@H](NC(=O)c1nn(C)c3c(O)cccc13)C2 [7-OH Granisetron]
amount of 7-OH Granisetron in plasma after oral dosing compared to intranasal administration ([1]; Beagle dogs): about twice as much
AUC0-last [1, 2]: 1389 ± 465 ng·min/mL
AUC0-∞ [1, 2]: 1419 ± 470 ng·min/mL
CL/F [1, 2]: 0.77 ± 0.25 L/min
Cmax [1, 2]: 4.28 ± 1.20 ng/mL
MRT [1, 2]: 4.95 ± 0.317 h
Tmax [1, 2]: 0.813 ± 0.222 h
t1/2 [1, 2]: 4.6 ± 0.0033 h
AUC0-last [1, 3]: 364 ± 263 ng·min/mL
AUC0-∞ [1, 3]: 386 ± 264 ng·min/mL
CL/F [1, 3]: 2.98 ± 4.01 L/min
MRT [1, 3]: 3.92 ± 0.817 h
Tmax [1, 3]: 1 ± 0.423 h
t1/2 [1, 3]: 3.88 ± 1.2 h
AUC0-last [1, 4]: 664 ± 520 ng·min/mL
AUC0-∞ [1, 4]: 691 ± 520 ng·min/mL
CL/F [1, 4]: 2.70 ± 2.36 L/min
Cmax [1, 4]: 2.18 ± 1.54 ng/mL
MRT [1, 4]: 4.42 ± 0.8 h
Tmax [1, 4]: 1.06 ± 0.395 h
t1/2 [1, 4]: 4.37 ± 0.783 h
AUC0-last [1, 5]: 1549 ± 771 ng·min/mL
AUC0-∞ [1, 5]: 1609 ± 810 ng·min/mL
CL/F [1, 5]: 1.50 ± 0.61 L/min
Cmax [1, 5]: 4.56 ± 2.01 ng/mL
MRT [1, 5]: 5.42 ± 0.35 h
Tmax [1, 5]: 1.09 ± 0.597 h
t1/2 [1, 5]: 5.1 ± 0.55 h
AUC0-last [1, 6]: 1197 ± 446 ng·min/mL
AUC0-∞ [1, 6]: 1246 ± 473 ng·min/mL
CL/F [1, 6]: 0.90 ± 0.32 L/min
Cmax [1, 6]: 5.73 ± 2.17 ng/mL
MRT [1, 6]: 4.5 ± 0.683 h
Tmax [1, 6]: 0.625 ± 0.267 h
t1/2 [1, 6]: 4.58 ± 1.02 h
Cmax ([1]; Beagle dogs, analyte metabolite 7-OH Granisetron, nasal GNS-B01 0.5 mg granisetron): 1.26 ± 0.845 ng/mL

CN1[C@@H]2CCC[C@H]1C[C@@H](NC(=O)c1nn(C)c3ccccc13)C2 [Granisetron, 1-methyl-N-((1R,3r,5S)-9-methyl-9-azabicyclo[3.3.1]nonan-3-yl)-1H-indazole-3-carboxamide, reference compound]
AUC(0-t) (in vivo; iv): 28.4 ng·h/mL
MRT (in vivo; iv): 1.24 h
half-life (in vivo; iv): 1.1 ± 0.178 h
MRT (in vivo; po): 1.5 h
Vd/F (in vivo; po): 531 ± 234 L
half-life (in vivo; po): ~1 h
CL/F ([1]; Beagle dogs, analyte Granisetron, nasal GNS-B01 0.5 mg/dog): 4.20 ± 4.35 L/min
CL/F ([1]; Beagle dogs, analyte Granisetron, nasal GNS-B01 1.0 mg/dog): 4.26 ± 3.69 L/min
CL/F ([1]; Beagle dogs, analyte Granisetron, nasal GNS-B01 2 mg/dog): 2.80 ± 2.18 L/min
Tmax ([1]; both, beagle, dog, plasma, inhaled or intranasal, 0.5 mg, Tmax, Beagle dogs, analyte Granisetron, nasal GNS-B01 0.5 mg/dog): 0.448 h
half-life ([1]; both, beagle, dog, plasma, inhaled or intranasal, 0.5 mg, analyte Granisetron, nasal GNS-B01 0.5 mg/dog): 0.997 ± 0.245 h
Tmax ([1]; both, beagle, dog, plasma, inhaled or intranasal, 1 mg, Tmax (range), Beagle dogs, intranasal administration 1.0 mg/dog): 0.25 to 0.75 h
Tmax ([1]; both, beagle, dog, plasma, inhaled or intranasal, 1 mg, Tmax, Beagle dogs, analyte Granisetron, nasal GNS-B01 1.0 mg/dog): 0.438 h
half-life ([1]; both, beagle, dog, plasma, inhaled or intranasal, 1 mg, analyte Granisetron, nasal GNS-B01 1.0 mg/dog): ~1 h
Tmax ([1]; both, beagle, dog, plasma, inhaled or intranasal, 2 mg, Tmax, Beagle dogs, analyte Granisetron, nasal GNS-B01 2 mg/dog): 0.397 h
half-life ([1]; both, beagle, dog, plasma, inhaled or intranasal, 2 mg, analyte Granisetron, nasal GNS-B01 2 mg/dog): 1.3 ± 0.352 h
Tmax ([1]; both, beagle, dog, plasma, po, 1 mg, Tmax (range), Beagle dogs, oral administration 1.0 mg/dog): 0.5 to 1 h
